# Tests used:
# [1] = Tumor pharmacokinetic study, 30 mg/kg IV QDx6; assay type: in vivo, mice
# protein kinases [2] = target: protein kinases (Homo sapiens, UniProt O15530); test: Kinase inhibition, percentage of activity at 0.5 μM, standardized radiometric kinase assays; assay type: biochemical; settings: PDK1(h);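 further: each kinase tested separately, with activity read as 33P-labelled substrate protein captured on filters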
# protein kinases [3] = target: protein kinases (Homo sapiens, UniProt O43318); test: as above; assay type: biochemical; settings: TAK1(h)
# protein kinases [4] = target: protein kinases (Homo sapiens, UniProt P00519); test: as above; assay type: biochemical; settings: Abl(h)
# protein kinases [5] = target: protein kinases (Homo sapiens, UniProt P04049); test: as above; assay type: biochemical; settings: c-RAF(h)
# protein kinases [6] = target: protein kinases (Homo sapiens, UniProt P04629); test: as above; assay type: biochemical; settings: TrkA(h)
# protein kinases [7] = target: protein kinases (Homo sapiens, UniProt P06241); test: as above; assay type: biochemical; settings: Fyn(h)
# protein kinases [8] = target: protein kinases (Homo sapiens, UniProt P07333); test: as above; assay type: biochemical; settings: Fms(h)
# protein kinases [9] = target: protein kinases (Homo sapiens, UniProt P07947); test: as above; assay type: biochemical; settings: Yes(h)
# protein kinases [10] = target: protein kinases (Homo sapiens, UniProt P07948); test: as above; assay type: biochemical; settings: Lyn(h)
# protein kinases [11] = target: protein kinases (Homo sapiens, UniProt P08069); test: as above; assay type: biochemical; settings: IGF-1R(h)
# protein kinases [12] = target: protein kinases (Homo sapiens, UniProt P08631); test: as above; assay type: biochemical; settings: Hck(h)
# protein kinases [13] = target: protein kinases (Homo sapiens, UniProt P10721, D816H); test: as above; assay type: biochemical; settings: cKit(D816H)(h)
# protein kinases [14] = target: protein kinases (Homo sapiens, UniProt P10721, V560G); test: as above; assay type: biochemical; settings: cKit(V560G)(h)
# protein kinases [15] = target: protein kinases (Homo sapiens, UniProt P16234, D842V); test: as above; assay type: biochemical; settings: PDGFRα(D842V)(h)
# protein kinases [16] = target: protein kinases (Homo sapiens, UniProt P16591); test: as above; assay type: biochemical; settings: Fer(h)
# protein kinases [17] = target: protein kinases (Homo sapiens, UniProt P23443); test: as above; assay type: biochemical; settings: p70S6K(h)
# protein kinases [18] = target: protein kinases (Homo sapiens, UniProt P31749); test: as above; assay type: biochemical; settings: PKBα(h)
# protein kinases [19] = target: protein kinases (Homo sapiens, UniProt P36888); test: as above; assay type: biochemical; settings: Flt3(h)
# protein kinases [20] = target: protein kinases (Homo sapiens, UniProt P36888, D835Y); test: as above; assay type: biochemical; settings: Flt3(D835Y)(h)
# protein kinases [21] = target: protein kinases (Homo sapiens, UniProt P51813); test: as above; assay type: biochemical; settings: Bmx(h)
# protein kinases [22] = target: protein kinases (Homo sapiens, UniProt Q05397); test: as above; assay type: biochemical; settings: FAK(h)
# protein kinases [23] = target: protein kinases (Homo sapiens, UniProt Q13177); test: as above; assay type: biochemical; settings: PAK2(h)
# protein kinases [24] = target: protein kinases (Homo sapiens, UniProt Q13464); test: as above; assay type: biochemical; settings: ROCK-I(h)
# protein kinases [25] = target: protein kinases (Homo sapiens, UniProt Q15303); test: as above; assay type: biochemical; settings: ErbB4(h)
# protein kinases [26] = target: protein kinases (Homo sapiens, UniProt Q8IW41); test: as above; assay type: biochemical; settings: PRAK(h)
# protein kinases [27] = target: protein kinases (Homo sapiens, UniProt Q96SB4); test: as above; assay type: biochemical; settings: SRPK1(h)
# Sequence of protein kinases (Homo sapiens, UniProt P07948) (P07948 2-512 limits assumed): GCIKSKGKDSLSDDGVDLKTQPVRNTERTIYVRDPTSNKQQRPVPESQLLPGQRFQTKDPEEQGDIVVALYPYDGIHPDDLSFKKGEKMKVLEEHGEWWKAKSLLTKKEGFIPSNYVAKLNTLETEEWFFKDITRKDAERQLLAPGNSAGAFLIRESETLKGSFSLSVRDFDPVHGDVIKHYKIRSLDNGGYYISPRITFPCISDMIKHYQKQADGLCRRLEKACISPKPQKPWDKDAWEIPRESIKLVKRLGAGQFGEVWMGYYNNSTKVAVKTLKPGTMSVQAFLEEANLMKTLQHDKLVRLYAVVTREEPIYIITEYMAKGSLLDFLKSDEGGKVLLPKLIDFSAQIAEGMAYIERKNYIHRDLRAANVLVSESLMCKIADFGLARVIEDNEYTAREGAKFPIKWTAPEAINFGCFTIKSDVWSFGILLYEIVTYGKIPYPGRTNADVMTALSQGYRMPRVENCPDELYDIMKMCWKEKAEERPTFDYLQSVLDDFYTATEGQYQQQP
# Sequence of protein kinases (Homo sapiens, UniProt P07333) (P07333 20-972 limits assumed): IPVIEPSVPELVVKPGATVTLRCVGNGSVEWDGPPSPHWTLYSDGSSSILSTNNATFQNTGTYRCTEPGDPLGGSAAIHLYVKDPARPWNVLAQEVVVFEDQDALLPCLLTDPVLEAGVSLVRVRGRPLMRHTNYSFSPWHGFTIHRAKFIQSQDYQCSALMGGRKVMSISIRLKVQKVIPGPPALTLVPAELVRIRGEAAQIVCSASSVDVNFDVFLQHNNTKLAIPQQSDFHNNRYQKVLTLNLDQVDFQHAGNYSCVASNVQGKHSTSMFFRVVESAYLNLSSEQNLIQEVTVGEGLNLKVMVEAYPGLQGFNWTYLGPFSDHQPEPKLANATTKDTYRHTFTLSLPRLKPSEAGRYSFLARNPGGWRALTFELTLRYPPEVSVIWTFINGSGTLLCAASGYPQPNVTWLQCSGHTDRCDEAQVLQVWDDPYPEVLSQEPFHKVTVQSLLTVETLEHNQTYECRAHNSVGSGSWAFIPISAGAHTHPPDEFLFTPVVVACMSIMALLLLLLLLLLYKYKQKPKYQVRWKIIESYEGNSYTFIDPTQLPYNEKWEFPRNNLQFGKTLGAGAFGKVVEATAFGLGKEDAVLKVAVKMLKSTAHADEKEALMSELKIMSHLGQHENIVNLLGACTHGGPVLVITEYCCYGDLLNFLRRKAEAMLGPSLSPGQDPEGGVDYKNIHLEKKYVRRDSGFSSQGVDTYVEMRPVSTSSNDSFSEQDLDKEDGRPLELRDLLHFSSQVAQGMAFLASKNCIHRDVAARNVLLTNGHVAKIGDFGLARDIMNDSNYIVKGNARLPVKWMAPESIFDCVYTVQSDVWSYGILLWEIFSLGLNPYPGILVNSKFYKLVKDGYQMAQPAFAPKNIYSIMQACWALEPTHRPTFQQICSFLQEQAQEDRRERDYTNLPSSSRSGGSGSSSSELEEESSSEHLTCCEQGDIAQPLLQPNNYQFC
# Sequence of protein kinases (Homo sapiens, UniProt P04629) (P04629 33-796 limits assumed): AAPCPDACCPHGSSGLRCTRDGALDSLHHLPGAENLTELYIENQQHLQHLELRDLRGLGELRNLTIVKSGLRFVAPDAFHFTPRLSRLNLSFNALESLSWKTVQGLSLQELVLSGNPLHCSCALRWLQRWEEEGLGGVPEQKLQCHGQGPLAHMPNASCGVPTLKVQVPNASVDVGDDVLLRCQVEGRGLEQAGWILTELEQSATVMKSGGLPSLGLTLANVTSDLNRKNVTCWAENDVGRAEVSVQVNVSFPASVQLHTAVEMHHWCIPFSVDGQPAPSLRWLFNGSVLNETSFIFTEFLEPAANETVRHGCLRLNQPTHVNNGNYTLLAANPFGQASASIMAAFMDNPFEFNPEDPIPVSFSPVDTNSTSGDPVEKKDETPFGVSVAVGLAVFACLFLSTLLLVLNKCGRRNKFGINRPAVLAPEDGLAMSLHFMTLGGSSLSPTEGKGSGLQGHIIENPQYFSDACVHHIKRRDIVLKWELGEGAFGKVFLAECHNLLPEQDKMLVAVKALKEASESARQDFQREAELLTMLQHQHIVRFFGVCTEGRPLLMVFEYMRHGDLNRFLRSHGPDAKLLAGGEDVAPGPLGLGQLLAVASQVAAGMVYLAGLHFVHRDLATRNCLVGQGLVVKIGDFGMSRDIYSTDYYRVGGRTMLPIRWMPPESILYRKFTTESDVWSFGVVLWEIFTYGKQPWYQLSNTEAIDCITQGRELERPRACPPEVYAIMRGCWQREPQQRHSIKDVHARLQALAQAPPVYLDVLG
# Sequence of protein kinases (Homo sapiens, UniProt Q13464) (Q13464 2-1354 limits assumed): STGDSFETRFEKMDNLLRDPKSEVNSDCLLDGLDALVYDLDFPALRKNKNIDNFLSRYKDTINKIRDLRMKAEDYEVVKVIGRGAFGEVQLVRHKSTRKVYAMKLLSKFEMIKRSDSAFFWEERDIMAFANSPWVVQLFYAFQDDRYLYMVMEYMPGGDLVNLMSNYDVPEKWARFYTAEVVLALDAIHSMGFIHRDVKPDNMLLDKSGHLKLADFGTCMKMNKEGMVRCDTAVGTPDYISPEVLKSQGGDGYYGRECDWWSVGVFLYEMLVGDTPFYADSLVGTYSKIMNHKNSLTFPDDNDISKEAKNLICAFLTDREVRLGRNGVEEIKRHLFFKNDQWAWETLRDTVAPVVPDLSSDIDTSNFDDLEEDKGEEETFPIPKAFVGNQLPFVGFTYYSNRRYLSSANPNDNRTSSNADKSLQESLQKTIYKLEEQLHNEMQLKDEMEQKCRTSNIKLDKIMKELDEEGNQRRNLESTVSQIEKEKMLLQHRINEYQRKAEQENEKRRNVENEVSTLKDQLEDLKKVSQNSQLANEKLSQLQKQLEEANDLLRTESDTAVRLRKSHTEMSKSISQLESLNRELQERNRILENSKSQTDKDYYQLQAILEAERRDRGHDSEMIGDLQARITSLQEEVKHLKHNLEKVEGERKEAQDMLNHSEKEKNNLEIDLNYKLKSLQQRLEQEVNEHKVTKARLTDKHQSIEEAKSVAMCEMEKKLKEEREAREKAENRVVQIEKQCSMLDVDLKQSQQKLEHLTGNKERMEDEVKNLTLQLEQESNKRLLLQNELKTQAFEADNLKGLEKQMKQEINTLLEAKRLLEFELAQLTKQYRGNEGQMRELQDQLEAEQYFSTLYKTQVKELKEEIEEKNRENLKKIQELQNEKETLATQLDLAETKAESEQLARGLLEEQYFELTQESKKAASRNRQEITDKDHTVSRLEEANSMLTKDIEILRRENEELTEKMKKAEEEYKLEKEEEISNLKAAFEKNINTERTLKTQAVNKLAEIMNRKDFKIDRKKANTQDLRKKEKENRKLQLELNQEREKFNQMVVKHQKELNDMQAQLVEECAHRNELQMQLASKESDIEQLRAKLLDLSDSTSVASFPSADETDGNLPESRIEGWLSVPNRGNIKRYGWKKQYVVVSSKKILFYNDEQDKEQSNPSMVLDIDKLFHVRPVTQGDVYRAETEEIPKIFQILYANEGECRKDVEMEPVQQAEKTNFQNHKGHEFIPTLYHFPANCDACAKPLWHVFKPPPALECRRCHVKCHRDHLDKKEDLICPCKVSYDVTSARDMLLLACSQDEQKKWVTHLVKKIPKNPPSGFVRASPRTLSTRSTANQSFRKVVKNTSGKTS
# Sequence of protein kinases (Homo sapiens, UniProt P10721, V560G) (P10721 26-976 V560G limits assumed): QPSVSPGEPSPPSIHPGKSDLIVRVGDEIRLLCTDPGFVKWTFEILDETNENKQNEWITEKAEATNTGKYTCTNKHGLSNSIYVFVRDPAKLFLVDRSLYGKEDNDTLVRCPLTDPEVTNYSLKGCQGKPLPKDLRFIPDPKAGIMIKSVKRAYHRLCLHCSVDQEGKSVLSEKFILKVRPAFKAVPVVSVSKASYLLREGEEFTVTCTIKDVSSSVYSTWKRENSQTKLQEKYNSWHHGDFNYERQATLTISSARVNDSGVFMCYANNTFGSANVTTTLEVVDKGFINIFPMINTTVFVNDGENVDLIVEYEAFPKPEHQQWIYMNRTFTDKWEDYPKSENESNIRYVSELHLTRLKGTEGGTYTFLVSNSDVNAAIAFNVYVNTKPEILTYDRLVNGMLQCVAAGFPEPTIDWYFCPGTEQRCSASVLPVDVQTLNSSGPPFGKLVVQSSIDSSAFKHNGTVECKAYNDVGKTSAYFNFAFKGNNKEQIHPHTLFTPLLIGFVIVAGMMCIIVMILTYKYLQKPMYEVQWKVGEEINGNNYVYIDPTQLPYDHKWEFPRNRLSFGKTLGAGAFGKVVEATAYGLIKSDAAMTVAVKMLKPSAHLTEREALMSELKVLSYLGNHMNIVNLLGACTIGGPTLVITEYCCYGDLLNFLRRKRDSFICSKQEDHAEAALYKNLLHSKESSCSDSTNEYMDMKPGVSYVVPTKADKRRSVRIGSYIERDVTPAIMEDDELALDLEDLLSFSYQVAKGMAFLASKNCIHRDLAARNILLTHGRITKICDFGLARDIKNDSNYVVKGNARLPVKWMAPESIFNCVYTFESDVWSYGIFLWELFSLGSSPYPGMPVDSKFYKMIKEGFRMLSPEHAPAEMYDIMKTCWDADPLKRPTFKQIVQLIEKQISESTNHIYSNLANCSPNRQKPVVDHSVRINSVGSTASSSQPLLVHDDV
# Sequence of protein kinases (Homo sapiens, UniProt P07947) (P07947 2-543 limits assumed): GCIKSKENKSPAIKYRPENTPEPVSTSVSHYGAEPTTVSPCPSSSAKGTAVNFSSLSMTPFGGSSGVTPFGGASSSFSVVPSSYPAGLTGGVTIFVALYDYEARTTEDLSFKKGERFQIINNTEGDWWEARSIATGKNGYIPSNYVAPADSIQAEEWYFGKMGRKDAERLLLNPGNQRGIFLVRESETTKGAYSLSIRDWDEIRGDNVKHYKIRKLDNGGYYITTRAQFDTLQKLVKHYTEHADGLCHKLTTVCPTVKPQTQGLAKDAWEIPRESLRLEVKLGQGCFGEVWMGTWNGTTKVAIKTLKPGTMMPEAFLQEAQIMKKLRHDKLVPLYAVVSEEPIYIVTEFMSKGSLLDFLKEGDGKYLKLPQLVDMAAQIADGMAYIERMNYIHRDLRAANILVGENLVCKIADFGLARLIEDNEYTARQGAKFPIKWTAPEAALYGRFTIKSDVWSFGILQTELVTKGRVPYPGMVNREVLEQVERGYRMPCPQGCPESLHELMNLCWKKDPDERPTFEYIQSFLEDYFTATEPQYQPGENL
smiles,measurement,setting,value
C#Cc1cccc(Nc2nc3cc(C(=O)O)ccc3c3cncnc23)c1 [compound A2],Half life change on repeated dosing,[1],about doubles
same,Minimum concentration increase after six days,[1],4-5 times higher
same,Time to steady state,[1],about three days
same,activity at 0.5 µM,protein kinases [2],110%
same,activity at 0.5 µM,protein kinases [3],101%
same,activity at 0.5 µM,protein kinases [4],91%
same,activity at 0.5 µM,protein kinases [5],69%
same,activity at 0.5 µM,protein kinases [6],90%
same,activity at 0.5 µM,protein kinases [7],114%
same,activity at 0.5 µM,protein kinases [8],174%
same,activity at 0.5 µM,protein kinases [9],109%
same,activity at 0.5 µM,protein kinases [10],109%
same,activity at 0.5 µM,protein kinases [11],73%
same,activity at 0.5 µM,protein kinases [12],111%
same,activity at 0.5 µM,protein kinases [13],101%
same,activity at 0.5 µM,protein kinases [14],111%
same,activity at 0.5 µM,protein kinases [15],109%
same,activity at 0.5 µM,protein kinases [16],103%
same,activity at 0.5 µM,protein kinases [17],80%
same,activity at 0.5 µM,protein kinases [18],104%
same,activity at 0.5 µM,protein kinases [19],42%
same,activity at 0.5 µM,protein kinases [20],17%
same,activity at 0.5 µM,protein kinases [21],118%
same,activity at 0.5 µM,protein kinases [22],97%
same,activity at 0.5 µM,protein kinases [23],112%
same,activity at 0.5 µM,protein kinases [24],97%
same,activity at 0.5 µM,protein kinases [25],126%
same,activity at 0.5 µM,protein kinases [26],93%
same,activity at 0.5 µM,protein kinases [27],66%
